Reference: the NIST ThermoML archive (doi:10.1016/j.jct.2019.03.007)

Test: molar heat capacity at constant pressure
Settings: 101.33 kPa, Crystal 2, DSC

O=[N+]([O-])[O-].O=[N+]([O-])[O-].[Ca+2] [calcium nitrate]
Settings | molar heat capacity at constant pressure [J/K/mol]
140.18 K | 107.65
141.18 K | 107.79
142.18 K | 107.93
143.18 K | 108.08
144.18 K | 108.26
145.18 K | 108.53
146.18 K | 108.77
147.18 K | 109.04
148.18 K | 109.41
149.18 K | 109.53
150.18 K | 109.66
151.18 K | 110.04
152.18 K | 110.2
153.18 K | 110.55
154.18 K | 110.68
155.18 K | 111.12
156.18 K | 111.45
157.18 K | 111.69
158.18 K | 111.99
159.18 K | 112.21
160.18 K | 112.56
161.18 K | 112.86
162.18 K | 113.24
163.18 K | 113.35
164.18 K | 113.45
165.18 K | 113.94
166.18 K | 114.12
167.18 K | 114.45
168.18 K | 114.73
169.18 K | 114.98
170.18 K | 115.36
171.18 K | 115.66
172.18 K | 116.1
173.18 K | 116.37
174.18 K | 116.66
175.18 K | 117.01
176.18 K | 117.33
177.18 K | 117.64
178.18 K | 117.92
179.18 K | 118.12
180.18 K | 118.62
181.18 K | 118.7
182.18 K | 119.16
183.18 K | 119.36
184.18 K | 119.66
185.18 K | 119.91
186.18 K | 120.23
187.18 K | 120.54
188.18 K | 120.8
189.18 K | 121.2
190.18 K | 121.32
191.18 K | 121.79
192.18 K | 122.02
193.18 K | 122.2
194.18 K | 122.58
195.18 K | 122.7
196.18 K | 123.1
197.18 K | 123.28
198.18 K | 123.48
199.18 K | 123.86
200.18 K | 123.94
201.18 K | 124.39
202.18 K | 124.62
203.18 K | 124.88
204.18 K | 125.24
205.18 K | 125.55
206.18 K | 125.8
207.18 K | 126.11
208.18 K | 126.43
209.18 K | 126.73
210.18 K | 126.95
211.18 K | 127.36
212.18 K | 127.6
213.18 K | 127.82
214.18 K | 128.19
215.18 K | 128.55
216.18 K | 128.82
217.18 K | 129.14
218.18 K | 129.41
219.18 K | 129.69
220.18 K | 129.91
221.18 K | 130.24
222.18 K | 130.55
223.18 K | 130.83
224.18 K | 131.03
225.18 K | 131.19
226.18 K | 131.52
227.18 K | 131.78
228.18 K | 132.06
229.18 K | 132.35
230.18 K | 132.6
231.18 K | 132.91
232.18 K | 133.16
233.18 K | 133.4
234.18 K | 133.66
235.18 K | 134.04
236.18 K | 134.28
237.18 K | 134.56
238.18 K | 134.67
239.18 K | 134.73
240.18 K | 134.88
241.18 K | 134.93
242.18 K | 135.27
243.18 K | 135.75
244.18 K | 136.33
245.18 K | 136.84
246.18 K | 137.21
247.18 K | 137.52
248.18 K | 137.79
249.18 K | 138.02
250.18 K | 138.35
251.18 K | 138.62
252.18 K | 138.99
253.18 K | 139.21
254.18 K | 139.61
255.18 K | 139.92
256.18 K | 140.17
257.18 K | 140.52
258.18 K | 140.74
259.18 K | 140.96
260.18 K | 141.24
261.18 K | 141.46
262.18 K | 141.71
263.18 K | 141.92
264.18 K | 142.15
265.18 K | 142.33
266.18 K | 142.65
